Test results from patent US10316017B2, “COT modulators and methods of use thereof” (Gilead Sciences, Inc., priority 2015, dated 2019).
pEC50, pIC50: −log10 of the molar value.

What was measured:
[1] = system: TNFα production in LPS-stimulated human monocytes; experiment: Cot Monocyte TNFα Cell Based Assay; settings: Homo sapiens, Monocyte, LPS-stimulated human monocytes, TNFα TR-FRET; read-out: EC50 TNF
Outline: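 Percent-of-control values derive from TR-FRET ratios of TNFα in spun-down media, referenced to unstimulated and LPS-stimulated wells. Exposure: 1 h compound preincubation, then 50 pg/ml LPS for 4 h, both at 37 °C, with 0.5% final DMSO.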

[2] = target: T1, human Cot catalytic domain (30-397 amino acids) (Homo sapiens, UniProt P41279); experiment: High Throughput Cot Biochemical Assay (KinEASE TR-FRET); settings: Cot KinEASE TR-FRET, 400 μM ATP; read-out: IC50 HTRF
T1 construct: Purified recombinant human Cot catalytic domain (30-397 amino acids) was purchased from Cama Biosciences; purchased Cama Biosciences (so in the source)
T1 sequence (P41279 30-397): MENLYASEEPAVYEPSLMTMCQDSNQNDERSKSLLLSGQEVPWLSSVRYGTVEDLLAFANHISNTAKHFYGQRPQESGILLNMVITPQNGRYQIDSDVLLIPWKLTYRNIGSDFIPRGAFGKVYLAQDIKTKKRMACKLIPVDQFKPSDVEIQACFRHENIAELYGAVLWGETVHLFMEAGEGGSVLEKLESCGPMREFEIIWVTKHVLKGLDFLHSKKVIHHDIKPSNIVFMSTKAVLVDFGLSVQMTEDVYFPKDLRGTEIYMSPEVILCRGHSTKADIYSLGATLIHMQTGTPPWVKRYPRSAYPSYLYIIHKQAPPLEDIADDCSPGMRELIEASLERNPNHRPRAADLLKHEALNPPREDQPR
Outline: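 Phosphorylation of 1 μM XL665-STK3 peptide by 5 nM Cot catalytic domain was measured by time-resolved FRET using a europium […] antibody. ATP was 400 μM; buffer was 10 mM MOPS pH 7.0 with Mg2+ and DTT.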

pEC50 [1] | pIC50 [2] | SMILES
7.82 | 8.70 | Cc1c(C#N)cccc1[C@H](Nc1cc(C#N)c2ncc(C#N)c(NCC(C)(C)C)c2c1)c1cn(C2(CF)CC2)nn1 [Example 1147, (S)-6-(((3-cyano-2-methylphenyl)(1-(1-(fluoromethyl)cyclopropyl)-1H-1,2,3-triazo1-4-yl)methyl)amino)-4-(neopentylamino)quinoline-3,8-dicarbonitrile]
7.70 | 8.70 | Cc1c(C#N)cccc1[C@H](Nc1cc(C#N)c2ncc(C#N)c(NCC(C)(C)C)c2c1)c1cn(C2(C)CC2)nn1 [Example 1148, (S)-6-(((3-cyano-2-methylphenyl)(1-(1-methylcyclopropyl)-1H-1,2,3-triazol-4-yl)methyl)amino)-4-(neopentylamino)quinoline-3,8-dicarbonitrile]
7.35 | 8.40 | Cc1c(C#N)cccc1[C@H](Nc1cc(C#N)c2ncc(C#N)c(NCC(C)(C)C)c2c1)c1cn(C(CF)CF)nn1 [Example 1149, (S)-6-(((3-cyano-2-methylphenyl)(1-(1,3-difluoropropan-2-yl)-1H-1,2,3-triazol-4-yl)methyl)amino)-4-(neopentylamino)quinoline-3,8-dicarbonitrile]
7.57 | 8.70 | Cc1c(C#N)cccc1[C@H](Nc1cc(C#N)c2ncc(C#N)c(NCC(C)(C)C)c2c1)c1cn([C@@H](C)CF)nn1 [Example 1150, 6-(((S)-(3-cyano-2-methylphenyl)(1-((S)-1-fluoropropan-2-yl)-1H-1,2,3-triazol-4-yl)methyl)amino)-4-(neopentylamino)quinoline-3,8-dicarbonitrile]
7.44 | 8.70 | Cc1c(C#N)cccc1[C@H](Nc1cc(C#N)c2ncc(C#N)c(NCC(C)(C)C(F)(F)F)c2c1)c1cn(C23CC(C2)C3)nn1 [Example 1151, (S)-6-(((1-(bicyclo[1.1.1]pentan-1-yl)-1H-1,2,3-triazol-4-yl)(3-cyano-2-methylphenyl)methyl)amino)-4-((3,3,3-trifluoro-2,2-dimethylpropyl)amino) quinoline-3,8-dicarbonitrile]
7.31 | 8.52 | Cc1c(C#N)cccc1[C@H](Nc1cc(C#N)c2ncc(C#N)c(NCC(C)(C)C(F)(F)F)c2c1)c1cn(C2(C3CC3)CC2)nn1 [Example 1152, (S)-6-(((1-([1,1'-bi(cyclopropan)]-1-yl)-1H-1,2,3-triazol-4-yl)(3-cyano-2-methylphenyl)methyl)amino)-4-((3,3,3-trifluoro-2,2-dimethylpropyl)amino)quinoline-3,8-dicarbonitrile]
7.38 | 8.70 | Cc1c(-c2cn[nH]c2)cccc1[C@H](Nc1cc(C#N)c2ncc(C#N)c(NCC(C)(C)C)c2c1)c1cn(C2(C(F)F)CC2)nn1 [Example 1153, (S)-6-(((1-(1-(difluoromethyl)cyclopropyl)-1H-1,2,3-triazol-4-yl)(2-methyl-3-(1H-pyrazol-4-yl)phenyl)methyl)amino)-4-(neopentylamino)quinoline-3,8-dicarbonitrile]
7.35 | 8.70 | Cc1c(-c2cncn2C)cccc1[C@H](Nc1cc(C#N)c2ncc(C#N)c(NCC(C)(C)C)c2c1)c1cn(C2(C(F)F)CC2)nn1 [Example 1154, (S)-6-(((1-(1-(difluoromethyl)cyclopropyl)-1H-1,2,3-triazol-4-yl)(2-methyl-3-(1-methyl-1H-imidazol-5-yl)phenyl)methyl)amino)-4-(neopentylamino)quinoline-3,8-dicarbonitrile]
7.22 | 9.00 | Cc1c(-c2ccnnc2)cccc1[C@H](Nc1cc(C#N)c2ncc(C#N)c(NCC(C)(C)C)c2c1)c1cn(C2(C(F)F)CC2)nn1 [Example 1155, (S)-6-(((1-(1-(difluoromethyl)cyclopropyl)-1H-1,2,3-triazol-4-yl)(2-methyl-3-(pyridazin-4-yl)phenyl)methyl)amino)-4-(neopentylamino)quinoline-3,8-dicarbonitrile]
7.89 | 9.00 | Cc1c(C#N)cccc1[C@H](Nc1cc(C#N)c2ncc(C#N)c(NCC(C)(C)C)c2c1)c1cn(C23CC(C2)C3)nn1 [Example 1156, (S)-6-(((1-(bicyclo[1.1.1]pentan-1-yl)-1H-1,2,3-triazol-4-yl)(3-cyano-2-methylphenyl)methyl)amino)-4-(neopentylamino)quinoline-3,8-dicarbonitrile]
7.82 | 8.52 | Cc1c(C#N)cccc1[C@H](Nc1cc(C#N)c2ncc(C#N)c(NCC(C)(C)C)c2c1)c1cn(C2(C3CC3)CC2)nn1 [Example 1157, (S)-6-(((1-([1,1'-bi(cyclopropan)]-1-yl)-1H-1,2,3-triazol-4-yl)(3-cyano-2-methylphenyl)methyl)amino)-4-(neopentylamino)quinoline-3,8-dicarbonitrile]
7.59 | 8.70 | Cc1c(-c2cnco2)cccc1[C@H](Nc1cc(C#N)c2ncc(C#N)c(NCC(C)(C)C)c2c1)c1cn(C2(C(F)F)CC2)nn1 [Example 1158, (S)-6-(((1-(1-(difluoromethyl)cyclopropyl)-1H-1,2,3-triazol-4-yl)(2-methyl-3-(oxazol-5-yl)phenyl)methyl)amino)-4-(neopentylamino)quinoline-3,8-dicarbonitrile]
6.38 | 7.30 | CC(C)(C)CNc1c(C#N)cnc2c(C#N)cc(N[C@@H](c3ccccc3Cl)c3nnn(C4(C)CC4)c3F)cc12 [Example 1159, (S)-6-(((2-chlorophenyl)(5-fluoro-1-(1-methylcyclopropyl)-1H-1,2,3-triazol-4-yl)methyl)amino)-4-(neopentylamino)quinoline-3,8-dicarbonitrile]
6.03 | 7.15 | COc1c([C@@H](Nc2cc(C#N)c3ncc(C#N)c(NCC(C)(C)C)c3c2)c2ccccc2Cl)nnn1C1(C)CC1 [Example 1160, (S)-6-(((2-chlorophenyl)(5-methoxy-1-(1-methylcyclopropyl)-1H-1,2,3-triazol-4-yl)methyl)amino)-4-(neopentylamino)quinoline-3,8-dicarbonitrile]
7.35 | 7.85 | Cc1nnc(C2(n3cc([C@@H](Nc4cc(C#N)c5ncc(C#N)c(NCC(C)(C)C)c5c4)c4ccccc4Cl)nn3)CC2)o1 [Example 1161, (S)-6-(((2-chlorophenyl)(1-(1-(5-methyl-1,3,4-oxadiazol-2-yl)cyclopropyl)-1H-1,2,3-triazol-4-yl)methyl)amino)-4-(neopentylamino)quinoline-3,8-dicarbonitrile]
6.32 | 7.80 | Cc1c(-c2ccn(C)n2)cccc1[C@H](Nc1cc(Cl)c2ncc(C#N)c(NCC(C)(C)C)c2c1)c1cn(C2(C(F)(F)F)CC2)nn1 [Example 1162, (S)-8-chloro-6-(((2-methyl-3-(1-methyl-1H-pyrazol-3-yl)phenyl) (1-(1-(trifluoromethyl)cyclopropyl)-1H-1,2,3-triazol-4-yl)methyl)amino)-4-(neopentylamino)quinoline-3-carbonitrile]
6.33 | 7.72 | Cc1c(-c2cc[nH]n2)cccc1[C@H](Nc1cc(Cl)c2ncc(C#N)c(NCC(C)(C)C)c2c1)c1cn(C2(C(F)(F)F)CC2)nn1 [Example 1163, (S)-8-chloro-6-(((2-methyl-3-(1H-pyrazol-3-yl)phenyl)(1-(1-(trifluoromethyl)cyclopropyl)-1H-1,2,3-triazol-4-yl)methyl)amino)-4-(neopentylamino)quinoline-3-carbonitrile]
7.18 | 7.89 | Cc1c(-c2cn[nH]c2)cccc1[C@H](Nc1cc(Cl)c2ncc(C#N)c(NCC(C)(C)C)c2c1)c1cn(C2(C(F)(F)F)CC2)nn1 [Example 1164, (S)-8-chloro-6-(((2-methyl-3-(1H-pyrazol-4-yl)phenyl) (1-(1-(trifluoromethyl)cyclopropyl)-1H-1,2,3-triazol-4-yl)methyl)amino)-4-(neopentylamino) quinoline-3-carbonitrile]
6.99 | 8.05 | Cc1c(-c2cnco2)cccc1[C@H](Nc1cc(Cl)c2ncc(C#N)c(NCC(C)(C)C)c2c1)c1cn(C2(C(F)(F)F)CC2)nn1 [Example 1165, (S)-8-chloro-6-(((2-methyl-3 (oxazol-5-yl)phenyl)(1-(1-(trifluoromethyl)cyclopropyl)-1H-1,2,3-triazol-4-yl)methyl)amino)-4-(neopentylamino)quinoline-3-carbonitrile]
7.33 | 8.30 | Cc1c(-c2cn[nH]c2)cccc1[C@H](Nc1cc(Cl)c2ncc(C#N)c(NCC(C)(C)C)c2c1)c1cn(C2(C(F)F)CC2)nn1 [Example 1166, (S)-8-chloro-6-(((1-(1-(difluoromethyl)cyclopropyl)-1H-1,2,3-triazol-4-yl) (2-methyl-3-(1H-pyrazol-4-yl)phenyl)methyl)amino)-4-(neopentylamino)quinoline-3-carbonitrile]
7.21 | 8.30 | Cc1c(-c2cnco2)cccc1[C@H](Nc1cc(Cl)c2ncc(C#N)c(NCC(C)(C)C)c2c1)c1cn(C2(C(F)F)CC2)nn1 [Example 1167, (S)-8-chloro-6-(((1-(1-(difluoromethyl)cyclopropyl)-1H-1,2,3-triazol-4-yl)(2-methyl-3-(oxazol-5-yl)phenyl)methyl)amino)-4-(neopentylamino)quinoline-3-carbonitrile]
7.12 | 8.40 | Cc1c(C#N)cccc1[C@H](Nc1cc(Cl)c2ncc(C#N)c(NCC(C)(C)C)c2c1)c1nnn(C2(C(F)F)CC2)c1F [Example 1168, (S)-8-chloro-6-(((3-cyano-2-methylphenyl)(1-(1-(difluoromethyl)cyclopropyl)-5-fluoro-1H-1,2,3-triazol-4-yl)methyl)amino)-4-(neopentylamino)quinoline-3-carbonitrile]
